# In article PMC7933930, “Development of a small molecule that corrects misfolding and increases secretion of Z α1‐antitrypsin” (EMBO Molecular Medicine, 2021):
# pEC50: −log10 of the molar value. Where two headings read alike, the source gives them in different places.
# Key:
# [1] = Total and unbound drug concentrations in blood and liver of Z α1‐antitrypsin transgenic mice; assay type: in vivo; conditions: for concentration at 123 h / concentration at 128 h / concentration at 339 h / concentration at 483 h: female, mouse, oral
# Method: GSK716 was evaluated in a transgenic mouse model with an engineered random insertion of the human Z α1‐antitrypsin gene (Teckman et al, 2004). […] Further, older mice have larger α1‐antitrypsin inclusions that may be more difficult to reverse and any changes would be more difficult to detect than in younger animals. The PK‐PD relationship of GSK716 was explored by dosing Z α1‐antitrypsin transgenic animals with 10, 30 or 100 mg/kg GSK716 three times a day. […] Blood was also harvested for the measurement of monomeric Z α1‐antitrypsin in plasma. Total concentrations of GSK716 were determined by LC‐MS/MS, and the free drug in both tissues was determined using equilibrium dialysis to determine free fraction in the samples, subsequently used to derive unbound concentrations. […] Both free and total drug concentrations of GSK716 at the targeted site of action in the liver were equivalent to those in blood (Table 2).
# Male CD‐1 mice, Han Wistar rats or beagle dogs were administered GSK716 as a suspension in 1% w/v aqueous methylcellulose via oral gavage at doses of 1 mg/kg (dog) or 10, 30 and 100 mg/kg (mouse, rat). Blood samples were taken into EDTA, diluted and mixed with acetonitrile containing internal standard (alprazolam) and centrifuged to precipitate proteins. Aliquots of the resultant supernatant were analysed by LC‐MS/MS, and concentrations of GSK716 in blood were determined. Non‐compartmental pharmacokinetic analysis (NCA) was carried out using Phoenix WinNonLin 6.3 (Certara L.P.). Free drug was measured in Z α1‐antitrypsin transgenic mice by dialysing tissue samples in rapid equilibrium dialysis cassettes.
# Hemizygous female Z α1‐antitrypsin transgenic mice were 13–15 weeks of age at start of study. Drugs were administered via oral gavage three times a day at 8‐h intervals at 10 ml/Kg as a suspension in aqueous methylcellulose containing 0.5% w/v Tween 80. In life, blood sampling was performed vial tail nick. Animals were housed in licensed, approved housing in the UK with appropriate enrichment. Animals were randomly assigned to groups using manual methods. Histopathology analysis was performed blind.
# [2] = molecular target: Adrenergic α2C (Homo sapiens, UniProt P18825); assay: Off‐target panel: Adrenergic α2C; assay type: cell-based
# Chain of Adrenergic α2C (P18825 whole entry): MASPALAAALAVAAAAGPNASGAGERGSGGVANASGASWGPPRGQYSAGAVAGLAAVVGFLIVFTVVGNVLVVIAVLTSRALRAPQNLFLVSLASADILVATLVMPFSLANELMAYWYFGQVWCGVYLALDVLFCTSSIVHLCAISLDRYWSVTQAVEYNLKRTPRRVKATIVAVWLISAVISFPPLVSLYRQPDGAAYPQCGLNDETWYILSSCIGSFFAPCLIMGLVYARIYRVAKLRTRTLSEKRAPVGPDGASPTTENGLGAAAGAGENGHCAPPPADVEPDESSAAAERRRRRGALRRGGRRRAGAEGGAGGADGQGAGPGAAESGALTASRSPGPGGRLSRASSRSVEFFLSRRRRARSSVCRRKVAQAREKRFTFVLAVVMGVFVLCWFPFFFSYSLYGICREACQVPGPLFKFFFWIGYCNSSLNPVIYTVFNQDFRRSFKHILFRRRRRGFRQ
# Method: (§1) GSK716 selectivity and PK properties were profiled in order to investigate the suitability of GSK716 for progression into in vivo studies and the potential for taking it forward as a clinical candidate for testing in humans. Since GSK716 results in loss of inhibitory activity of α1‐antitrypsin, the effect of the compound was assessed on other closely related serpins. […] Furthermore, there were no off‐target effects in a panel of assays considered predictive of known safety liabilities that precluded further development of GSK716 (Table EV1).
# [3] = molecular target: OPRK1 (Homo sapiens, UniProt P41145); assay: Off‐target panel: OPRK1 (DRX); assay type: cell-based
# Chain of OPRK1 (P41145 whole entry, species assumed): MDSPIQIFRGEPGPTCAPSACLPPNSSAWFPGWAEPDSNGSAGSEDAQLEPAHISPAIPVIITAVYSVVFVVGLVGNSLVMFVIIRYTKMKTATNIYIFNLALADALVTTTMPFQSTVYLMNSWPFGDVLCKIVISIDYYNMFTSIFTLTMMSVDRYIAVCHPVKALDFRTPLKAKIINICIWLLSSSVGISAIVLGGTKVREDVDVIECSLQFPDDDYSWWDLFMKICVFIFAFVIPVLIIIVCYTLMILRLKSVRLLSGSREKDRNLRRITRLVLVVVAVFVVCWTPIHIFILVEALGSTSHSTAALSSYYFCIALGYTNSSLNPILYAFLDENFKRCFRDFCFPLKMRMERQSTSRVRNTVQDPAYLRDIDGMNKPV
# Method: as §1
# [4] = Z α1-antitrypsin transgenic (hemizygous), whole blood, 100 mg/kg, 100 mg/kg three times a day, read-out: TOTAL mean concentration ± SD, Blood
# [5] = Z α1-antitrypsin transgenic (hemizygous), whole blood, 100 mg/kg, 100 mg/kg three times a day, read-out: UNBOUND mean concentration ± SD, Blood
# [6] = hemizygous Z α1-antitrypsin transgenic, liver, 100 mg/kg three times a day, read-out: TOTAL mean concentration ± SD, Liver
structure (smiles),measurement,setting,value
CCC[C@@H](NC(=O)c1cccc2c1CC(=O)N2)[C@@H](O)c1cccc(F)c1C [GSK716],"UNBOUND mean concentration ± SD, Liver","[1]; 30 mg/kg three times a day, time 128 h",0.075 (± 0.04 µM
same,concentration at 123 h,"[1]; Z α1-antitrypsin transgenic (hemizygous), liver, 10 mg/kg, 10 mg/kg three times a day, read-out: TOTAL mean concentration ± SD, Liver",3.5 µM
same,concentration at 123 h,"[1]; Z α1-antitrypsin transgenic (hemizygous), liver, 10 mg/kg, 10 mg/kg three times a day, read-out: UNBOUND mean concentration ± SD, Liver",0.035 µM
same,concentration at 128 h,"[1]; Z α1-antitrypsin transgenic (hemizygous), liver, 10 mg/kg, 10 mg/kg three times a day, time 128 h, read-out: TOTAL mean concentration ± SD, Liver",2.1 µM
same,concentration at 128 h,"[1]; Z α1-antitrypsin transgenic (hemizygous), liver, 10 mg/kg, 10 mg/kg three times a day, time 128 h, read-out: UNBOUND mean concentration ± SD, Liver",0.028 µM
same,concentration at 123 h,"[1]; Z α1-antitrypsin transgenic (hemizygous), liver, 30 mg/kg, 30 mg/kg three times a day, read-out: TOTAL mean concentration ± SD, Liver",6.7 µM
same,concentration at 123 h,"[1]; Z α1-antitrypsin transgenic (hemizygous), liver, 30 mg/kg, 30 mg/kg three times a day, read-out: UNBOUND mean concentration ± SD, Liver",0.091 µM
same,concentration at 128 h,"[1]; Z α1-antitrypsin transgenic (hemizygous), liver, 30 mg/kg, 30 mg/kg three times a day, time 128 h, read-out: TOTAL mean concentration ± SD, Liver",8.3 µM
same,concentration at 123 h,"[1]; Z α1-antitrypsin transgenic (hemizygous), liver, 100 mg/kg, 100 mg/kg three times a day, read-out: TOTAL mean concentration ± SD, Liver",40.9 µM
same,concentration at 123 h,"[1]; Z α1-antitrypsin transgenic (hemizygous), liver, 100 mg/kg, 100 mg/kg three times a day, read-out: UNBOUND mean concentration ± SD, Liver",1.05 µM
same,concentration at 128 h,"[1]; Z α1-antitrypsin transgenic (hemizygous), liver, 100 mg/kg, 100 mg/kg three times a day, time 128 h, read-out: TOTAL mean concentration ± SD, Liver",28.4 µM
same,concentration at 128 h,"[1]; Z α1-antitrypsin transgenic (hemizygous), liver, 100 mg/kg, 100 mg/kg three times a day, time 128 h, read-out: UNBOUND mean concentration ± SD, Liver",0.679 µM
same,concentration at 123 h,"[1]; Z α1-antitrypsin transgenic (hemizygous), whole blood, 10 mg/kg, 10 mg/kg three times a day, read-out: TOTAL mean concentration ± SD, Blood",8.7 µM
same,concentration at 123 h,"[1]; Z α1-antitrypsin transgenic (hemizygous), whole blood, 10 mg/kg, 10 mg/kg three times a day, read-out: UNBOUND mean concentration ± SD, Blood",0.018 µM
same,concentration at 128 h,"[1]; Z α1-antitrypsin transgenic (hemizygous), whole blood, 10 mg/kg, 10 mg/kg three times a day, time 128 h, read-out: TOTAL mean concentration ± SD, Blood",7.7 µM
same,concentration at 128 h,"[1]; Z α1-antitrypsin transgenic (hemizygous), whole blood, 10 mg/kg, 10 mg/kg three times a day, time 128 h, read-out: UNBOUND mean concentration ± SD, Blood",0.009 µM
same,concentration at 123 h,"[1]; Z α1-antitrypsin transgenic (hemizygous), whole blood, 30 mg/kg, 30 mg/kg three times a day, read-out: TOTAL mean concentration ± SD, Blood",14 µM
same,concentration at 123 h,"[1]; Z α1-antitrypsin transgenic (hemizygous), whole blood, 30 mg/kg, 30 mg/kg three times a day, read-out: UNBOUND mean concentration ± SD, Blood",0.061 µM
same,concentration at 128 h,"[1]; Z α1-antitrypsin transgenic (hemizygous), whole blood, 30 mg/kg, 30 mg/kg three times a day, time 128 h, read-out: TOTAL mean concentration ± SD, Blood",13 µM
same,concentration at 128 h,"[1]; Z α1-antitrypsin transgenic (hemizygous), whole blood, 30 mg/kg, 30 mg/kg three times a day, time 128 h, read-out: UNBOUND mean concentration ± SD, Blood",0.051 µM
same,concentration at 123 h,[1]; [4],33 µM
same,concentration at 123 h,[1]; [5],0.49 µM
same,concentration at 128 h,"[1]; Z α1-antitrypsin transgenic (hemizygous), whole blood, 100 mg/kg, 100 mg/kg three times a day, time 128 h, read-out: TOTAL mean concentration ± SD, Blood",20 µM
same,concentration at 128 h,"[1]; Z α1-antitrypsin transgenic (hemizygous), whole blood, 100 mg/kg, 100 mg/kg three times a day, time 128 h, read-out: UNBOUND mean concentration ± SD, Blood",0.18 µM
same,concentration at 339 h,[1]; [4],30 µM
same,concentration at 339 h,[1]; [5],0.529 µM
same,concentration at 483 h,"[1]; hemizygous Z α1-antitrypsin transgenic, blood, 100 mg/kg three times a day, read-out: TOTAL mean concentration ± SD, Blood",22 µM
same,concentration at 483 h,"[1]; hemizygous Z α1-antitrypsin transgenic, blood, 100 mg/kg three times a day, read-out: UNBOUND mean concentration ± SD, Blood",0.561 µM
same,concentration at 339 h,[1]; [6],84.6 µM
same,concentration at 483 h,[1]; [6],42.4 µM
same,pEC50,[2],< 4.00
same,pEC50,[3],4.70
